We go through four molecules from BindingDB's records for doi:10.1111/j.1432-1033.1992.tb17043.x (Universit&Eacute, 1992).

Each structure is given as a SMILES string. Non-standard residues stand in square brackets, D forms with d. Residues, ends and D or L forms follow the SMILES beside them. ξ: configuration not given here. Ile(3ξ) = CCC(C)[C@H](N)C(=O)O

The Ki is a measure of affinity in units of concentration, obtained from inhibition or displacement. Low readings indicate tighter binding, high ones weaker binding.

This experiment concerns the target T1, Pituitary adenylate cyclase-activating polypeptide (Homo sapiens, UniProt P18509).
T1 sequence (P18509 whole entry): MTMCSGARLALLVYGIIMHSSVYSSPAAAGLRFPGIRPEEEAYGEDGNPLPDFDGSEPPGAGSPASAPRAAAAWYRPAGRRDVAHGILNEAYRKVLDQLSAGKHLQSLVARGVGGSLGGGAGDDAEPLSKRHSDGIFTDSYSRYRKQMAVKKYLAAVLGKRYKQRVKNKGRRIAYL

Molecule `CC[C@H](C)[C@H](NC(=O)CNC(=O)[C@H](CC(N)=O)NC(=O)[C@H](CO)NC(=O)[C@@H](N)Cc1cnc[nH]1)C(=O)N[C@@H](Cc1ccccc1)C(=O)N[C@H](C(=O)N[C@@H](CC(=O)O)C(=O)N[C@@H](CO)C(=O)N[C@@H](Cc1ccc(O)cc1)C(=O)N[C@@H](CO)C(=O)N[C@@H](CCCNC(=N)N)C(=O)N[C@@H](Cc1ccc(O)cc1)C(=O)N[C@@H](CCCNC(=N)N)C(=O)N[C@@H](CCCCN)C(=O)N[C@@H](CCC(N)=O)C(=O)N[C@@H](CCSC)C(=O)N[C@@H](C)C(=O)N[C@H](C(=O)N[C@@H](CCCCN)C(=O)N[C@@H](CCCCN)C(=O)N[C@@H](Cc1ccc(O)cc1)C(=O)N[C@@H](CC(C)C)C(=O)N[C@@H](C)C(=O)N[C@@H](C)C(=O)N[C@H](C(=O)N[C@@H](CC(C)C)C(N)=O)C(C)C)C(C)C)[C@@H](C)O` [[Asn3]PACAP(1-27)] gave a Ki of 200 nM.

The molecule `CCC(C)[C@H](NC(=O)CNC(=O)[C@H](CC(=O)O)NC(=O)[C@@H](Cc1ccccc1)NC(=O)[C@@H](N)Cc1cnc[nH]1)C(=O)N[C@@H](Cc1ccccc1)C(=O)N[C@H](C(=O)N[C@@H](CC(=O)O)C(=O)N[C@@H](CO)C(=O)N[C@@H](Cc1ccc(O)cc1)C(=O)N[C@@H](CO)C(=O)N[C@@H](CCCN=C(N)N)C(=O)N[C@@H](Cc1ccc(O)cc1)C(=O)N[C@@H](CCCN=C(N)N)C(=O)N[C@@H](CCCCN)C(=O)N[C@@H](CCC(N)=O)C(=O)N[C@@H](CCSC)C(=O)N[C@@H](C)C(=O)N[C@H](C(=O)N[C@@H](CCCCN)C(=O)N[C@@H](CCCCN)C(=O)N[C@@H](Cc1ccc(O)cc1)C(=O)N[C@@H](CC(C)C)C(=O)N[C@@H](C)C(=O)N[C@@H](C)C(=O)N[C@H](C(=O)N[C@@H](CC(C)C)C(N)=O)C(C)C)C(C)C)[C@@H](C)O` (stereo partly drawn) [[D-Phe2]PACAP-27] registered a Ki of 300 nM.

For the molecule `CCC(C)[C@H](NC(=O)CNC(=O)[C@H](CC(=O)O)NC(=O)[C@@H](Cc1ccccc1)NC(=O)[C@@H](N)Cc1cnc[nH]1)C(=O)N[C@@H](Cc1ccccc1)C(=O)N[C@H](C(=O)N[C@@H](CC(=O)O)C(=O)N[C@@H](CO)C(=O)N[C@@H](Cc1ccc(O)cc1)C(=O)N[C@@H](CO)C(=O)N[C@@H](CCCN=C(N)N)C(=O)N[C@@H](Cc1ccc(O)cc1)C(=O)N[C@@H](CCCN=C(N)N)C(=O)N[C@@H](CCCCN)C(=O)N[C@@H](CCC(N)=O)C(=O)N[C@@H](CCSC)C(=O)N[C@@H](C)C(=O)N[C@H](C(=O)N[C@@H](CCCCN)C(=O)N[C@@H](CCCCN)C(=O)N[C@@H](Cc1ccc(O)cc1)C(=O)N[C@@H](CC(C)C)C(=O)N[C@@H](C)C(=O)N[C@@H](C)C(=O)N[C@H](C(=O)N[C@@H](CC(C)C)C(=O)NCC(=O)N[C@@H](CCCCN)C(=O)N[C@@H](CCCN=C(N)N)C(=O)N[C@@H](Cc1ccc(O)cc1)C(=O)N[C@@H](CCCCN)C(=O)N[C@@H](CCC(N)=O)C(=O)N[C@@H](CCCN=C(N)N)C(=O)N[C@H](C(=O)N[C@@H](CCCCN)C(=O)N[C@@H](CC(N)=O)C(=O)N[C@@H](CCCCN)C(N)=O)C(C)C)C(C)C)C(C)C)[C@@H](C)O` (stereo partly drawn) [[D-Phe2]PACAP-38] (H-H[dF]DG[Ile(3ξ)]FTDSYSRYRKQMAVKKYLAAVLGKRYKQRVKNK-NH2), the inhibition constant (Ki) worked out at 10 nM.

`CCC(C)[C@H](NC(=O)CNC(=O)[C@H](CC(=O)O)NC(=O)[C@H](Cc1ccccc1)NC(=O)[C@@H](N)Cc1cnc[nH]1)C(=O)N[C@@H](Cc1ccccc1)C(=O)N[C@H](C(=O)N[C@@H](CC(=O)O)C(=O)N[C@@H](CO)C(=O)N[C@@H](Cc1ccc(O)cc1)C(=O)N[C@@H](CO)C(=O)N[C@@H](CCCN=C(N)N)C(=O)N[C@@H](Cc1ccc(O)cc1)C(=O)N[C@@H](CCCN=C(N)N)C(=O)N[C@@H](CCCCN)C(=O)N[C@@H](CCC(N)=O)C(=O)N[C@@H](CCSC)C(=O)N[C@@H](C)C(=O)N[C@H](C(=O)N[C@@H](CCCCN)C(=O)N[C@@H](CCCCN)C(=O)N[C@@H](Cc1ccc(O)cc1)C(=O)N[C@@H](CC(C)C)C(=O)N[C@@H](C)C(=O)N[C@@H](C)C(=O)N[C@H](C(=O)N[C@@H](CC(C)C)C(N)=O)C(C)C)C(C)C)[C@@H](C)O` (some centres undefined) [[Phe2]PACAP(1-27)] came in with a Ki of 200 nM.
